Measurements as given in US5653961A, “Butixocort aerosol formulations in hydrofluorocarbon propellant” (Minnesota Mining and Manufacturing Company, priority 1995, dated 1997).
Converted amounts (≈) assume the structure as drawn.

Assay: Solubility of butixocort propionate in propellants and propellant/ethanol blends
Type: physicochemical
Procedure: Solubility of butixocort propionate in P134a, P227, and blends thereof with ethanol, was determined as follows: Drug and the selected propellant system were combined and agitated for a period of seven days at a selected temperature to afford a saturated solution. The solid was filtered off and the supernatant was weighed. The propellant was removed by evaporation and the drug was reconstituted quantitatively. The concentration of the drug in the reconstituted solution was determined and from this the mount and concentration of drug dissolved in the propellant system was calculated. TABLES 1 and 2 show the average of three independent determinations.

Compound: CCCC(=O)O[C@]1(C(=O)CSC(=O)CC)CC[C@H]2[C@@H]3CCC4=CC(=O)CC[C@]4(C)[C@H]3[C@@H](O)C[C@@]21C [Butixocort propionate, 11-beta-hydroxypregn-4-ene-3,20-dione-21-thiopropionate-17-butyrate]
- solubility in HFA 134a (HFA 134a, 20° C.): about 0.02 % by weight
- solubility in HFA 227 (HFA 227, 20° C.): about 0.03 % by weight
- solubility at 168 h (propellant 134a, 0% ethanol, organic solvent or mixture, 0 weight % ethanol, 20°C, Table 2, average of three determinations): 300 µg/mL (≈ 594 µM)
- solubility at 168 h (propellant 134a, 1% ethanol, organic solvent or mixture, 1 weight % ethanol, 20°C, Table 2): 751 µg/mL (≈ 1490 µM)
- solubility at 168 h (propellant 134a, 2.5% ethanol, organic solvent or mixture, 2.5 weight % ethanol, 20°C, Table 2): 1760 µg/mL (≈ 3480 µM)
- solubility at 168 h (propellant 134a, 5% ethanol, organic solvent or mixture, 5 weight % ethanol, 20°C, Table 2): 4180 µg/mL (≈ 8280 µM)
- solubility at 168 h (propellant 134a, 7.5% ethanol, organic solvent or mixture, 7.5 weight % ethanol, 20°C, Table 2): 6960 µg/mL (≈ 13800 µM)
- solubility at 168 h (propellant 134a, 10% ethanol, organic solvent or mixture, 10 weight % ethanol, 20°C, Table 2): 9630 µg/mL (≈ 19100 µM)
- solubility at 168 h (propellant 134a, organic solvent or mixture, 4 °C, Table 1, average of three determinations): 103 µg/mL (≈ 204 µM)
- solubility at 168 h (propellant 134a, organic solvent or mixture, 20 °C, Table 1, average of three determinations): 203 µg/mL (≈ 402 µM)
- solubility at 168 h (propellant 134a, organic solvent or mixture, 30 °C, Table 1, average of three determinations): 300 µg/mL (≈ 594 µM)
- solubility at 168 h (propellant 134a, organic solvent or mixture, 40 °C, Table 1, average of three determinations): 319 µg/mL (≈ 632 µM)
- solubility at 168 h (propellant 227, 0% ethanol, organic solvent or mixture, Propellant 227, 0 weight % ethanol, 20°C, Table 2, average of three determinations): 395 µg/mL (≈ 783 µM)
- solubility at 168 h (propellant 227, 1% ethanol, organic solvent or mixture, Propellant 227, 1 weight % ethanol, 20°C, Table 2): 971 µg/mL (≈ 1920 µM)
- solubility at 168 h (propellant 227, 2.5% ethanol, organic solvent or mixture, Propellant 227, 2.5 weight % ethanol, 20°C, Table 2): 1110 µg/mL (≈ 2210 µM)
- solubility at 168 h (propellant 227, 5% ethanol, organic solvent or mixture, Propellant 227, 5 weight % ethanol, 20°C, Table 2): 3850 µg/mL (≈ 7630 µM)
- solubility at 168 h (propellant 227, 7.5% ethanol, organic solvent or mixture, Propellant 227, 7.5 weight % ethanol, 20°C, Table 2): 6200 µg/mL (≈ 12300 µM)
- solubility at 168 h (propellant 227, 10% ethanol, organic solvent or mixture, Propellant 227, 10 weight % ethanol, 20°C, Table 2): 8520 µg/mL (≈ 16900 µM)
- solubility at 168 h (propellant 227, organic solvent or mixture, Propellant 227, 4 °C, Table 1, average of three determinations): 261 µg/mL (≈ 517 µM)
- solubility at 168 h (propellant 227, organic solvent or mixture, Propellant 227, 20 °C, Table 1, average of three determinations): 285 µg/mL (≈ 565 µM)
- solubility at 168 h (propellant 227, organic solvent or mixture, Propellant 227, 30 °C, Table 1, average of three determinations): 306 µg/mL (≈ 606 µM)
- solubility at 168 h (propellant 227, organic solvent or mixture, Propellant 227, 40 °C, Table 1, average of three determinations): 317 µg/mL (≈ 628 µM)
